Where two headings read alike, the source gives them in different places.
How the values were obtained:
barnyardgrass = assay: Test A pre-/postemergence herbicide test; assay type: in vivo, Echinochloa crus-galli; conditions: for pest or weed control at 500 g/ha: 0 to 100 scale (0 no effect, 100 complete control)
Method in brief: (§1)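 Visual 0–100 ratings (100 = complete control) made about 10 days after treatment, greenhouse-held plants compared with untreated controls. Treatments: postemergence sprays on one- to two-leaf plants (2–10 cm tall) and preemergence directed soil sprays after planting in loam–sand, chemicals formulated in non-phytotoxic solvent containing surfactant.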

giant foxtail = assay: Test A pre-/postemergence herbicide test; assay type: in vivo, Setaria faberii
Method in brief: as §1

ducksalad = assay: Test B flooded paddy test; assay type: in vivo, Heteranthera limosa; conditions: Flood, scale of 0 to 100 where 0 is no effect and 100 is complete control
Method in brief: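 Plants were grown to the 2-leaf stage, then pots were flooded to 3 cm above the soil and compound was applied directly into the paddy water, with that depth held throughout. After 13 to 15 days in a greenhouse, injury was rated visually against untreated controls on a 0 to 100 scale (100 = complete control).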

ryegrass, Italian = assay: Test C pre-/postemergence herbicide test; assay type: in vivo, Lolium multiflorum
Method in brief: (§2)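 Greenhouse plants scored visually against untreated controls 13–15 days after treatment, 0 = no effect, 100 = complete control. Test chemicals in a non-phytotoxic solvent with surfactant were applied either to soil (loam/sand) at planting or to foliage of 1- to 4-leaf plants, 2–18 cm tall.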

corn = assay: Test C pre-/postemergence herbicide test; assay type: in vivo, Zea mays
Method in brief: as §2

crabgrass, large = assay: Test C pre-/postemergence herbicide test; assay type: in vivo, Digitaria sanguinalis
Method in brief: as §2

johnsongrass = assay: Test C pre-/postemergence herbicide test; assay type: in vivo, Sorghum halepense
Method in brief: as §2

lambsquarters = assay: Test C pre-/postemergence herbicide test; assay type: in vivo, Chenopodium album
Method in brief: as §2

nutsedge, yellow = assay: Test C pre-/postemergence herbicide test; assay type: in vivo, Cyperus esculentus
Method in brief: as §2

pigweed = assay: Test C pre-/postemergence herbicide test; assay type: in vivo, Amaranthus retroflexus
Method in brief: as §2

soybean = assay: Test C pre-/postemergence herbicide test; assay type: in vivo, Glycine max
Method in brief: as §2

[1] = Preemergence, 125 g ai/ha, visual rating on 0 to 100 scale (0 no effect, 100 complete control)
[2] = Postemergence, 31 g ai/ha, scale 0 (no effect) to 100 (complete control)
[3] = Postemergence, 62 g ai/ha, scale 0 to 100 (0 no effect, 100 complete control)
[4] = Postemergence, 125 g ai/ha, scale 0 to 100 (0 no effect, 100 complete control)
[5] = Postemergence, 250 g ai/ha, scale 0 to 100 (0 no effect, 100 complete control)
[6] = Preemergence, 31 g ai/ha, scale 0 to 100, 0 is no effect and 100 is complete control
[7] = Preemergence, 62 g ai/ha, scale 0 to 100
[8] = Preemergence, 125 g ai/ha, scale 0 to 100 (0 no effect, 100 complete control)
[9] = 125 g ai/ha, visual rating, 0 to 100 scale, 0 no effect, 100 complete control, approximately 10 days, preemergence
[10] = Postemergence, 125 g ai/ha, 0 to 100 scale, 0 is no effect, 100 is complete control
[11] = preemergence, 500 g ai/ha, 0 to 100 scale, 0 is no effect and 100 is complete control
[12] = Preemergence, 62 g ai/ha, scale 0 to 100 (0 no effect, 100 complete control)

SMILES: O=C1NCC(c2ccc(C(F)(F)F)cc2)C1C(=O)Nc1cccc(F)c1F (stereo not drawn) [Compound 80, N-(2,3-difluorophenyl)-2-oxo-4-[4-(trifluoromethyl)phenyl]-3-pyrrolidinecarboxamide]
- pest or weed control at 125 g/ha (barnyardgrass; Echinochloa crus-galli, post-emergence, 240 h, Postemergence, 125 g ai/ha, 0 to 100 scale, 0 no effect, 100 complete control, read-out: Plant response rating, Barnyardgrass): 80%
- pest or weed control at 500 g/ha (barnyardgrass; Echinochloa crus-galli, post-emergence, 240 h, Postemergence, 500 g ai/ha, read-out: Plant response rating, Barnyardgrass): 80%
- pest or weed control at 500 g/ha (barnyardgrass; Echinochloa crus-galli, pre-emergence, 240 h, preemergence, 500 g ai/ha, read-out: Plant response rating, Barnyardgrass): 80%
- Barnyardgrass plant response rating (barnyardgrass; [1]): 80
- Foxtail, Giant plant response rating (giant foxtail; [1]): 90
- pest or weed control at 125 g/ha (giant foxtail; Setaria faberi, post-emergence, 240 h, Postemergence, 125 g ai/ha, 0 to 100 scale, 0 no effect, 100 complete control, read-out: Plant response rating, Foxtail, Giant): 80%
- pest or weed control at 500 g/ha (giant foxtail; Setaria faberi, post-emergence, 240 h, Postemergence, 500 g ai/ha, 0 to 100 scale (0 no effect, 100 complete control), read-out: Plant response rating, Foxtail, Giant): 80%
- pest or weed control at 500 g/ha (giant foxtail; Setaria faberi, pre-emergence, 240 h, preemergence, 500 g ai/ha, 0 to 100 scale, read-out: Plant response rating, Foxtail, Giant): 90%
- Plant response rating, Ducksalad (ducksalad; 250 g ai/ha): 75
- Plant response rating, Ryegrass, Italian (ryegrass, Italian; [2]): 0
- Plant response rating, Ryegrass, Italian (ryegrass, Italian; [3]): 0
- Plant response rating, Ryegrass, Italian (ryegrass, Italian; [4]): 0
- Plant response rating, Ryegrass, Italian (ryegrass, Italian; [5]): 0
- Ryegrass, Italian plant response rating (ryegrass, Italian; [6]): 0
- Plant response rating, Ryegrass, Italian (ryegrass, Italian; [7]): 40
- Plant response rating, Ryegrass, Italian (ryegrass, Italian; [8]): 40
- Plant response rating (scale of 0 to 100), Ryegrass, Italian (ryegrass, Italian; Preemergence, 250 g ai/ha): 45
- Plant response rating, Corn (corn; [2]): 0
- Plant response rating, Corn (corn; [3]): 5
- Plant response rating, Corn (corn; [4]): 5
- Plant response rating, Corn (corn; [5]): 10
- Corn plant response rating (corn; [6]): 0
- Plant response rating, Corn (corn; [7]): 0
- Plant response rating, Corn (corn; [8]): 0
- Plant response rating (scale of 0 to 100), Corn (corn; Preemergence, 250 g ai/ha): 65
- Plant response rating, Crabgrass, Large (crabgrass, large; [2]): 5
- Plant response rating, Crabgrass, Large (crabgrass, large; [3]): 40
- Plant response rating, Crabgrass, Large (crabgrass, large; [4]): 65
- Plant response rating, Crabgrass, Large (crabgrass, large; [5]): 75
- Crabgrass, Large plant response rating (crabgrass, large; [6]): 95
- Plant response rating, Crabgrass, Large (crabgrass, large; [7]): 98
- Plant response rating, Crabgrass, Large (crabgrass, large; [8]): 98
- Plant response rating (scale of 0 to 100), Crabgrass, Large (crabgrass, large; Preemergence, 250 g ai/ha): 100
- Plant response rating, Johnsongrass (johnsongrass; [2]): 5
- Plant response rating, Johnsongrass (johnsongrass; [3]): 5
- Plant response rating, Johnsongrass (johnsongrass; [4]): 5
- Plant response rating, Johnsongrass (johnsongrass; [5]): 10
- Johnsongrass plant response rating (johnsongrass; [6]): 0
- Plant response rating, Johnsongrass (johnsongrass; [7]): 0
- Plant response rating, Johnsongrass (johnsongrass; [8]): 30
- Plant response rating (scale of 0 to 100), Johnsongrass (johnsongrass; Preemergence, 250 g ai/ha): 55
- Plant response rating, Lambsquarters (lambsquarters; [2]): 55
- Plant response rating, Lambsquarters (lambsquarters; [3]): 55
- Plant response rating, Lambsquarters (lambsquarters; [4]): 60
- Plant response rating, Lambsquarters (lambsquarters; [5]): 70
- Lambsquarters plant response rating (lambsquarters; [6]): 40
- Plant response rating, Lambsquarters (lambsquarters; [7]): 85
- Plant response rating, Lambsquarters (lambsquarters; [8]): 90
- Plant response rating (scale of 0 to 100), Lambsquarters (lambsquarters; Preemergence, 250 g ai/ha): 90
- Plant response rating, Nutsedge, Yellow (nutsedge, yellow; [2]): 0
- Plant response rating, Nutsedge, Yellow (nutsedge, yellow; [3]): 0
- Plant response rating, Nutsedge, Yellow (nutsedge, yellow; [4]): 0
- Plant response rating, Nutsedge, Yellow (nutsedge, yellow; [5]): 0
- Nutsedge, Yellow plant response rating (nutsedge, yellow; [6]): 0
- Plant response rating, Nutsedge, Yellow (nutsedge, yellow; [7]): 0
- Plant response rating, Nutsedge, Yellow (nutsedge, yellow; [8]): 0
- Plant response rating (scale of 0 to 100), Nutsedge, Yellow (nutsedge, yellow; Preemergence, 250 g ai/ha): 10
- Plant response rating, Pigweed (pigweed; [2]): 40
- Plant response rating, Pigweed (pigweed; [3]): 40
- Plant response rating, Pigweed (pigweed; [4]): 60
- Plant response rating, Pigweed (pigweed; [5]): 75
- Pigweed plant response rating (pigweed; [6]): 75
- Plant response rating, Pigweed (pigweed; [7]): 90
- Plant response rating, Pigweed (pigweed; [8]): 90
- Plant response rating (scale of 0 to 100), Pigweed (pigweed; Preemergence, 250 g ai/ha): 90
- Plant response rating, Soybean (soybean; [2]): 0
- Plant response rating, Soybean (soybean; [3]): 5
- Plant response rating, Soybean (soybean; [4]): 5
- Plant response rating, Soybean (soybean; [5]): 25
- Soybean plant response rating (soybean; [6]): 0
- Plant response rating, Soybean (soybean; [7]): 0
- Plant response rating, Soybean (soybean; [8]): 0
- Plant response rating (scale of 0 to 100), Soybean (soybean; Preemergence, 250 g ai/ha): 0

SMILES: O=C1NCC(c2ccc(Cl)cc2)C1C(=O)Nc1cccc(F)c1F (stereo not drawn) [Compound 218]
- Plant response rating, Barnyardgrass (barnyardgrass; [9]): 80
- Plant response rating, Barnyardgrass (barnyardgrass; [10]): 60
- Barnyardgrass plant response rating (0 to 100 scale, 0 is no effect, 100 is complete control) (barnyardgrass; Postemergence, 500 g ai/ha): 90
- Plant response rating, Barnyardgrass (barnyardgrass; [11]): 90
- Plant response rating, Foxtail, Giant (giant foxtail; [9]): 90
- Plant response rating, Foxtail, Giant (giant foxtail; [10]): 60
- Foxtail, Giant plant response rating (0 to 100 scale, 0 is no effect, 100 is complete control) (giant foxtail; Postemergence, 500 g ai/ha): 90
- Plant response rating, Foxtail, Giant (giant foxtail; [11]): 90
- Plant response rating, Ducksalad (ducksalad; 500 g ai/ha): 100
- Ryegrass, Italian plant response rating (ryegrass, Italian; [6]): 0
- Ryegrass, Italian plant response rating (ryegrass, Italian; [12]): 0
- Plant response rating, Ryegrass, Italian (ryegrass, Italian; [8]): 0
- Plant response rating (scale of 0 to 100), Ryegrass, Italian (ryegrass, Italian; Preemergence, 250 g ai/ha): 50
- Corn plant response rating (corn; [6]): 0
- Corn plant response rating (corn; [12]): 0
- Plant response rating, Corn (corn; [8]): 0
- Plant response rating (scale of 0 to 100), Corn (corn; Preemergence, 250 g ai/ha): 0
- Crabgrass, Large plant response rating (crabgrass, large; [6]): 90
- Crabgrass, Large plant response rating (crabgrass, large; [12]): 90
- Plant response rating, Crabgrass, Large (crabgrass, large; [8]): 100
- Plant response rating (scale of 0 to 100), Crabgrass, Large (crabgrass, large; Preemergence, 250 g ai/ha): 100
- Johnsongrass plant response rating (johnsongrass; [6]): 0
- Johnsongrass plant response rating (johnsongrass; [12]): 10
- Plant response rating, Johnsongrass (johnsongrass; [8]): 15
- Plant response rating (scale of 0 to 100), Johnsongrass (johnsongrass; Preemergence, 250 g ai/ha): 40
- Lambsquarters plant response rating (lambsquarters; [6]): 10
- Lambsquarters plant response rating (lambsquarters; [12]): 40
- Plant response rating, Lambsquarters (lambsquarters; [8]): 75
- Plant response rating (scale of 0 to 100), Lambsquarters (lambsquarters; Preemergence, 250 g ai/ha): 85
- Nutsedge, Yellow plant response rating (nutsedge, yellow; [6]): 0
- Nutsedge, Yellow plant response rating (nutsedge, yellow; [12]): 0
- Plant response rating, Nutsedge, Yellow (nutsedge, yellow; [8]): 0
- Plant response rating (scale of 0 to 100), Nutsedge, Yellow (nutsedge, yellow; Preemergence, 250 g ai/ha): 0
- Pigweed plant response rating (pigweed; [6]): 5
- Pigweed plant response rating (pigweed; [12]): 50
- Plant response rating, Pigweed (pigweed; [8]): 75
- Plant response rating (scale of 0 to 100), Pigweed (pigweed; Preemergence, 250 g ai/ha): 85
- Soybean plant response rating (soybean; [6]): 0
- Soybean plant response rating (soybean; [12]): 5
- Plant response rating, Soybean (soybean; [8]): 40
- Plant response rating (scale of 0 to 100), Soybean (soybean; Preemergence, 250 g ai/ha): 20
